Laboratory results taken from patent US20130252930A1 (BIOMARIN PHARMACEUTICAL INC., priority 2010, published 2013).
Where two headings read alike, the source gives them in different places.

Key:
[1] = target: T1, CYP17 (human testicular microsome) (Homo sapiens, UniProt P05093); assay: CYP17 enzymatic assay (IC50) (Biological Example 4); assay type: biochemical; settings: human testicular microsome
T1 construct: using microsomal fraction from human testis (Celsis Cat #S00110) as the enzyme source; tissue Celsis S00110; host or cells: human testis microsomal fraction
T1 sequence (P05093 1-508): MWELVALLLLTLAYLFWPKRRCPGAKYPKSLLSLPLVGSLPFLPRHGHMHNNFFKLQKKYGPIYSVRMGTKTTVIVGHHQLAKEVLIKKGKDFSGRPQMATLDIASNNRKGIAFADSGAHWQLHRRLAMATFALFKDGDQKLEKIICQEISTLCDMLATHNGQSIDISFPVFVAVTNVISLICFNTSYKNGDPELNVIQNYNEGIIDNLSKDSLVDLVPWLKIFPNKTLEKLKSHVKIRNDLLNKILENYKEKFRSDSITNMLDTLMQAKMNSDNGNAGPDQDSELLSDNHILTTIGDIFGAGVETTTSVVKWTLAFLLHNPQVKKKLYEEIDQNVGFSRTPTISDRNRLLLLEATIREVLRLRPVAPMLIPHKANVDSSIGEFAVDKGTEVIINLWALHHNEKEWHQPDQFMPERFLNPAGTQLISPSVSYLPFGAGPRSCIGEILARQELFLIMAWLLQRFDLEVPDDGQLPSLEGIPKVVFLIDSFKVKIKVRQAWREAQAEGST

CYP17 (H295R cells) = target: T2, CYP17 (H295R cells) (Homo sapiens, UniProt P05093); assay: CYP17 cellular assay (IC50), testosterone in H295R cells (Biological Example 7); assay type: cell-based; settings: H295R cells
T2 construct: endogenous in cells; host or cells: H295R cells
T2 sequence (P05093 1-508): T1 sequence (P05093 1-508)
In short: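 H295R cells cultured 24 h, then exposed to compound at 100, 10, 1, 0.1 nM final in serum-free DMEM/F-12 with ITS+ and 0.1% methanol for 24 h at 37 °C. Medium testosterone measured by ELISA and plotted against compound concentration.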

[2] = target: T3, Cyp21 enzyme (Human HEK 293-Cyp21 stable transfected cells) (Homo sapiens, UniProt P08686); assay: CYP21-HEK293 enzymatic assay (% inhibition at 100 nM) (Biological Example 10); assay type: cell-based; settings: HEK 293-Cyp21 cells
T3 construct: expressed in transfected cells
T3 sequence (P08686 1-495): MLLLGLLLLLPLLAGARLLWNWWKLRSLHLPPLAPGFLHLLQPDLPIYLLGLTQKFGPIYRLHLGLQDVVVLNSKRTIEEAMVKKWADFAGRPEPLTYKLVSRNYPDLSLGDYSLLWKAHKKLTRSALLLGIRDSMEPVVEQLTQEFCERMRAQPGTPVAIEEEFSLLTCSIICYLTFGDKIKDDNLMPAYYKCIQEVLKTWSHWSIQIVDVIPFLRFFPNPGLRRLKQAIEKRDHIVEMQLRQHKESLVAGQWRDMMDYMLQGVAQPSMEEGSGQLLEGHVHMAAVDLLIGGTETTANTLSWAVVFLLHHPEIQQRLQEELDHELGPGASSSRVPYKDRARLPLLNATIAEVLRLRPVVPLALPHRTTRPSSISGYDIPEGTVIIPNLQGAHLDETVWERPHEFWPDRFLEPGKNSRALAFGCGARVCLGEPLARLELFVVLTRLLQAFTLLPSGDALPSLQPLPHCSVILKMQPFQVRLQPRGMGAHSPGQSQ
In short: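 HEK293 cells stably expressing human Cyp21 in DMEM + 10% FBS got compound (100 nM reported) for 5 h at 37 °C; 1% methanol served as mock. Progesterone substrate (final 10 μM) was then added for 20 h. DOC in the medium was measured by competitive ELISA (OD 450 nm) against a standard curve.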

[3] = DHEA by ELISA, read-out: Biological Example No. 4: CYP17 enzymatic assay IC50
[4] = testosterone by ELISA, 24 hours, read-out: Biological Example No. 7: CYP17 cellular assay IC50
[5] = 100 nM compound, read-out: Biological Example No. 10: CYP21-HEK293 percent inhibition at 100 nM

Row | SMILES | IC50 [1, 3] [nM] | IC50 (CYP17 (H295R cells); [4]) [nM] | inhibition at 0.1 µM [2, 5] [%] | IC50 ([1]; read-out: CYP17 enzymatic assay IC50 (Biological Example No. 4)) [nM] | IC50 (CYP17 (H295R cells); testosterone, read-out: CYP17 cellular assay IC50 (Biological Example No. 7)) [nM] | inhibition at 0.1 µM ([2]; compound at 100 nM, read-out: CYP21-HEK293 enzymatic assay % inhibition at 100 nM (Biological Example No. 10)) [%]
1 | C[C@]12CC[C@H]3[C@@H](CC=C4C[C@@H](O)CC[C@@]43C)C1=CC=C2c1cccnc1 [Compound 79, (3S,10R,13S)-10,13-dimethyl-17-(pyridin-3-yl)-2,3,4,7,8,9,10,11,12,13-decahydro-1H-cyclopenta[a]phenanthren-3-ol] | < 11 | < 15 | < 30 |  |  | 
2 | C[C@]12CC(O)C[C@@H]1CC[C@@H]1[C@@H]2CC[C@]2(C)C(n3ccnc3)=CC[C@@H]12 (stereo partly drawn) [Compound 109, (3aS,5aS)-6-(1H-imidazol-1-yl)-3a,5a-dimethyl-1,2,3,3a,3b,4,5,5a,8,8a,8b,9,10,10a-tetradecahydrodicyclopenta[a,f]naphthalen-2-ol] | < 11 | < 15 | ≥ 30 |  |  | 
3 | CC(=O)NC1CC[C@@]2(C)C(=CCC3C2CC[C@]2(C)C(n4ccnc4)=CCC32)C1 (stereo partly drawn) [Compound 237, N-((10R,13S)-17-(1H-imidazol-1-yl)-10,13-dimethyl-2,3,4,7,8,9,10,11,12,13,14,15-dodecahydro-1H-cyclopenta[a]phenanthren-3-yl)acetamide] |  |  |  | < 11 | < 15 | < 30
